Source: ChEMBL document CHEMBL4041545, “Design, synthesis and biological activities of tetrandrine and fangchinoline derivatives as antitumer agents” (Bioorg Med Chem Lett, 2017)

Key:
MCF7 [1] = assay: Antiproliferative activity against human MCF7 cells after 48 hrs by MTT assay; type: functional, cell-based; conditions: MCF7, 48 h
HepG2 [2] = assay: Antiproliferative activity against human HepG2 cells after 48 hrs by MTT assay; type: functional, cell-based; conditions: HepG2, 48 h
HepG2 [3] = assay: Induction of apoptosis in human HepG2 cells assessed as late apoptotic cells at 0.5 uM after 48 hrs by Annexin-V FITC/propidium iodide staining based flow cytometry (reference value: 5.53%); type: functional
HepG2 [4] = assay: Induction of apoptosis in human HepG2 cells assessed as necrotic cells at 0.5 uM after 48 hrs by Annexin-V FITC/propidium iodide staining based flow cytometry (reference value: 1.36%); type: functional
HepG2 [5] = assay: Potency index, ratio of sunitinib IC50 to compound IC50 for human HepG2 cells; type: functional
MCF7 [6] = assay: Potency index, ratio of sunitinib IC50 to compound IC50 for human MCF7 cells; type: functional
HepG2 [7] = assay: Induction of apoptosis in human HepG2 cells assessed as live cells at 0.5 uM after 48 hrs by Annexin-V FITC/propidium iodide staining based flow cytometry (reference value: 86.49%); type: functional
HepG2 [8] = assay: Induction of apoptosis in human HepG2 cells assessed as early apoptotic cells at 0.5 uM after 48 hrs by Annexin-V FITC/propidium iodide staining based flow cytometry (reference value: 6.62%); type: functional

IC50 (MCF7 [1]) [µM]	IC50 (HepG2 [2]) [µM]	SMILES	also measured
6.34	3.69	COc1ccc2cc1Oc1ccc(cc1)C[C@H]1c3cc(c(OC)cc3CCN1C)Oc1c(OC(=O)c3ccccc3)c(OC)cc3c1[C@H](C2)N(C)CC3	
1.99	1.69	COc1ccc2cc1Oc1ccc(cc1)C[C@H]1c3cc(c(OC)cc3CCN1C)Oc1c(OC(=O)c3cccc([N+](=O)[O-])c3)c(OC)cc3c1[C@H](C2)N(C)CC3	
3.51	1.32	COc1ccc2cc1Oc1ccc(cc1)C[C@H]1c3cc(c(OC)cc3CCN1C)Oc1c(OC(=O)c3ccccc3Cl)c(OC)cc3c1[C@H](C2)N(C)CC3	
4.54	0.65	CCOc1ccc(C(=O)Oc2c(OC)cc3c4c2Oc2cc5c(cc2OC)CCN(C)[C@H]5Cc2ccc(cc2)Oc2cc(ccc2OC)C[C@@H]4N(C)CC3)cc1	
14.6	10	COc1ccc2cc1Oc1ccc(cc1)C[C@H]1c3cc(c(OC)cc3CC[N+]1(C)CC(=O)[O-])Oc1c(OC)c(OC)cc3c1[C@H](C2)[N+](C)(CC(=O)[O-])CC3 (stereo not given in full)	
6.99	5.24	COc1ccc2cc1Oc1ccc(cc1)C[C@H]1c3cc(c(OC)cc3CCN1C)Oc1c(OC(C)=O)c(OC)cc3c1[C@H](C2)N(C)CC3	
7.98	4.92	COc1ccc2cc1Oc1ccc(cc1)C[C@H]1c3cc(c(OC)cc3CCN1C)Oc1c(OC(C)C)c(OC)cc3c1[C@H](C2)N(C)CC3	
10.1	13.1	CCOC(=O)C(C)[N+]1(C)CCc2cc(OC)c3cc2[C@@H]1Cc1ccc(cc1)Oc1cc(ccc1OC)C[C@H]1c2c(cc(OC)c(OC)c2O3)CCN1C (stereo not given in full)	
7.02	3.88	CCC(Br)C(=O)Oc1c(OC)cc2c3c1Oc1cc4c(cc1OC)CCN(C)[C@H]4Cc1ccc(cc1)Oc1cc(ccc1OC)C[C@@H]3N(C)CC2 (stereo not given in full)	
2.98	1.99	COc1ccc2cc1Oc1ccc(cc1)C[C@H]1c3cc(c(OC)cc3CCN1C)Oc1c(OC(=O)c3cccc(Cl)c3)c(OC)cc3c1[C@H](C2)N(C)CC3	
2.57	2.95	COc1ccc2cc1Oc1ccc(cc1)C[C@H]1c3cc(c(OC)cc3CCN1C)Oc1c(OC(=O)c3ccccc3[N+](=O)[O-])c(OC)cc3c1[C@H](C2)N(C)CC3	
8.55	5.52	CCOc1c(OC)cc2c3c1Oc1cc4c(cc1OC)CCN(C)[C@H]4Cc1ccc(cc1)Oc1cc(ccc1OC)C[C@@H]3N(C)CC2	
4.01	2.79	COc1ccc2cc1Oc1ccc(cc1)C[C@H]1c3cc(c(OC)cc3CCN1C)Oc1c(OC(=O)c3cccnc3Cl)c(OC)cc3c1[C@H](C2)N(C)CC3	
16.6	15.7	CCOC(=O)C(CC)[N+]1(C)CCc2cc(OC)c3cc2[C@@H]1Cc1ccc(cc1)Oc1cc(ccc1OC)C[C@H]1c2c(cc(OC)c(OC)c2O3)CCN1C (stereo not given in full)	
6.12	3.59	COc1ccc2cc1Oc1ccc(cc1)C[C@H]1c3cc(c(OC)cc3CCN1C)Oc1c(OC(=O)/C=C/c3ccccc3)c(OC)cc3c1[C@H](C2)N(C)CC3	
9.32	9.67	COc1ccc2cc1Oc1ccc(cc1)C[C@H]1c3cc(c(OC)cc3CC[N+]1(C)CCO)Oc1c(OC)c(OC)cc3c1[C@H](C2)[N+](C)(CCO)CC3 (stereo not given in full)	

Second part, the compound before the results:

SMILES	IC50 (MCF7 [1]) [µM]	IC50 (HepG2 [2]) [µM]	also measured
COc1ccc2cc1Oc1ccc(cc1)C[C@H]1c3cc(c(OC)cc3CCN1C)Oc1c(OC(=O)c3ccc(Cl)cc3)c(OC)cc3c1[C@H](C2)N(C)CC3	3.79	2.12	
COc1ccc2cc1Oc1ccc(cc1)C[C@H]1c3cc(c(OC)cc3CC[N+]1(C)CC(=O)[O-])Oc1c(OC)c(OC)cc3c1[C@H](C2)N(C)CC3 (stereo not given in full)	11.6	9.98	
COc1ccc2cc1Oc1ccc(cc1)C[C@H]1c3cc(c(OC)cc3CCN1C)Oc1c(OC(=O)c3ccccc3OC(C)=O)c(OC)cc3c1[C@H](C2)N(C)CC3	5.12	1.78	
CCCCOc1c(OC)cc2c3c1Oc1cc4c(cc1OC)CCN(C)[C@H]4Cc1ccc(cc1)Oc1cc(ccc1OC)C[C@@H]3N(C)CC2	7.34	3.79	
COc1ccc2cc1Oc1ccc(cc1)C[C@H]1c3cc(c(OC)cc3CCN1C)Oc1c(OC(=O)c3cccnc3)c(OC)cc3c1[C@H](C2)N(C)CC3	4.17	1.98	
COc1ccc2cc1Oc1ccc(cc1)C[C@H]1c3cc(c(OC)cc3CCN1C)Oc1c(OC(=O)CCl)c(OC)cc3c1[C@H](C2)N(C)CC3	7.13	4.12	
COc1ccc2cc1Oc1ccc(cc1)C[C@H]1c3cc(c(OC)cc3CCN1C)Oc1c(OC(=O)c3ccc([N+](=O)[O-])cc3)c(OC)cc3c1[C@H](C2)N(C)CC3	2.99	2.11	
C/C=C/C=C/C(=O)Oc1c(OC)cc2c3c1Oc1cc4c(cc1OC)CCN(C)[C@H]4Cc1ccc(cc1)Oc1cc(ccc1OC)C[C@@H]3N(C)CC2	6.56	4	
COc1ccc2cc1Oc1ccc(cc1)C[C@H]1c3cc(c(OC)cc3CCN1C)Oc1c(OCc3ccccc3)c(OC)cc3c1[C@H](C2)N(C)CC3	3.45	0.55	Activity (HepG2 [3]): 28.16%; Activity (HepG2 [4]): 5.77%; Ratio IC50 (HepG2 [5]): 29.2; Ratio IC50 (MCF7 [6]): 7.37; Activity (HepG2 [7]): 55.6%; Activity (HepG2 [8]): 10.47%
COc1ccc2cc1Oc1ccc(cc1)C[C@H]1c3cc(c(OC)cc3CCN1C)Oc1c(OC)c(OC)cc3c1[C@H](C2)N(C)CC3 [FANCHININ]	8.62	6.82	
COc1ccc2cc1Oc1ccc(cc1)C[C@H]1c3cc(c(OC)cc3CCN1C)Oc1c(O)c(OC)cc3c1[C@H](C2)N(C)CC3 [FANGCHINOLINE]	10.1	9.08	
